Results reported in patent US12606529B2, “Sulfur and amide tropolone inhibitors of nucleotidyl transferases and uses therefor” (Saint Louis University, priority 2019, dated 2026).
In brackets after ≈: the same amount, converted by molar mass. Like-named read-outs stand apart in the source and are kept apart here.

What was measured:
[1] = tested on: C. neoformans var. grubii, KN99; experiment: C. neoformans growth inhibition assay (limiting dilution); type: cell-based, Cryptococcus neoformans; conditions: Cryptococcus neoformans, 48 h, 48 h, 35° C.
Experimental: Cell types used for C. neoformans studies. All inhibition assays were performed with C. neoformans var. grubii, KN99 (serotype A, MAT). Two clinical strains of C. neoformans var. grubii, serotype A, were provided by Tamara Doering and Andre Spec. […] Cells were diluted to OD650 0.001 in YNB-02 02 (0.67% yeast nitrogen base, 0.2% dextrose, pH 7.0 with 50 mM MOPs)+1% DMSO prior to addition to the plates for the inhibition assays.
C. neoformans growth inhibition assays. Compounds were tested in a limiting dilution assay with a starting optical density (at 650 nm) of 0.001 in YNB-02 plus 1% DMSO. Cells plus compound were incubated in 96-well clear round bottom plates covered with a Breath-easy® membrane without shaking for 48 hours at 35° C. Before measuring cell density, plates were shaken on a microtiter plate shaker at 900 rpm for 3 minutes to resuspend cells and optical density was measured at 650 nm. […] Each assay was done in triplicate and all values are the average of two or more independent assays. The data are presented as the average cell density as a percent of DMSO-only treated cells. MICs are reported as the minimal concentration needed to inhibit 80% of C. neoformans growth relative to vehicle-treated controls.

HBV replication = HBV replication inhibition in HepDES19 cells (strand-preferential qPCR); conditions: for EC50: Hepatitis B virus
Experimental: Cells used for toxicity and HBV studies.
HBV replication inhibition studies. HepDES19 cells were seeded in 96-well plates at 4×10^4 cells per well in the absence of tetracycline. Test compounds in a final DMSO concentration of 1% were applied to cells 48 hours after induction of HBV replication and cells were incubated with compounds for 72 hours. Cells were washed in 200 μL of phosphate buffered saline (PBS) and lysed in 150 μL of core lysis buffer (10 mM Tris pH 7.4, 1% Tween20, 150 mM NaCl). Cells were incubated at room temperate on an orbital shaker at 350 rpm for 40 minutes. Cell lysate was transferred to a 96 well polymerase chain reaction (PCR) plate and centrifuged at 3300×g for 5 minutes. The supernatant (50 μL) from the cell lysate was transferred to a 96-well PCR plate and mixed with 20 units of micrococcal nuclease and 100 μM CaCl2. The lysate was incubated for 1 hour at 37° C., and then the nuclease was inactivated at 70° C. for ten minutes. Qiagen protease (0.005 Anson units) was added to the lysate and the mixture was incubated overnight. Qiagen protease was then inactivated at 95° C. for ten minutes.
The crude lysate was used as the template for strand-preferential quantitative polymerase chain reaction (q-PCR) analysis. Quantitative PCR was performed with 40 cycles of 95° C. for 15 s and 60° C. for 1 minute employing the Kappa Probe Force universal PCR master mix.

HSV-1 = experiment: Anti-HSV-1 replication assay (Vero cells, plaque titer); type: cell-based, herpes simplex virus 1; conditions: for log reduction at 1 µM / log reduction at 5 µM / log reduction at 0.33 µM: Human alphaherpesvirus 1, Vero; for log reduction at 1 µM: compound at 1 μM; for log reduction at 5 µM: compound at 5 μM; for log reduction at 0.33 µM: compound at 0.33 μM, read-out: HSV-1 suppression 0.33 μM
in vitro = conditions: human, HepDES19 cells
human RNaseH1 = biological target: T1, human RNaseH1 (Homo sapiens, UniProt O60930); experiment: Biochemical inhibition of human RNaseH1 activity; conditions: Table 2 amides; read-out: HuRH1 IC50
T1 sequence (O60930 1-286): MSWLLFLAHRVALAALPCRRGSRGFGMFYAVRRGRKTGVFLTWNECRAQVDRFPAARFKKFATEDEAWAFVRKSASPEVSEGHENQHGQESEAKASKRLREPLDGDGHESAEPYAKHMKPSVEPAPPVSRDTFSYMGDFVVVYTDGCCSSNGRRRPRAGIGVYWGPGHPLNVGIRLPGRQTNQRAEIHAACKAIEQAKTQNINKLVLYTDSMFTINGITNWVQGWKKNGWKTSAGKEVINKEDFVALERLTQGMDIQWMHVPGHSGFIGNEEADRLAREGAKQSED
Experimental: Biochemical inhibition of human RNaseH1 activity. Quantitative inhibition of the human RNaseH1 in the biochemical assays was assessed using a molecular beacon assay as described previously (Edwards et al., 2017). Recombinant human RNaseH 1 (0.3 μg) was incubated with 100 nM RNA:DNA substrate, 50 mM HEPES pH 8.0, 100 mM NaCl, 2 mM Tris(2-carboxyethyl)phosphine hydrochloride (TCEP), 0.05% Tween20, 5 units of RNaseOut, test compounds (0 to 500 μM), and 5% DMSO in a 100 μL reaction volume. The substrate was formed by annealing a complementary RNA oligonucleotide to a hairpin DNA oligonucleotide to hold the hairpin DNA oligonucleotide in an open conformation. The DNA oligonucleotide has a 5′ fluorescein reporter and a 3′ black hole quencher. When the RNA is degraded from the substrate the DNA oligonucleotide closes to form a hairpin structure, decreasing in signal intensity. Reactions were initiated with 5 mM MgCl2 and fluorescence was read using a Synergy HTS multi-mode plate reader at 37° C. Alternatively, the HBV RNaseH version used was MBP-HRHgtCΔ5, a genotype C isolate which lacks the C-terminal 35 amino acids of the HBV RNaseH domain that are predicted to be unstructured. Quantitative inhibition of the human RNaseH1 in biochemical assays was assessed using a FRET-based RNaseH assay under conditions previously reported for an RNaseH molecular beacon assay (Edwards et al., 2017). […] Cleavage of the RNA strand released the fluorescein from quenching, increasing fluorescence. Reactions were monitored for 90 min at 37° C. in a plate reader and initial reaction rates were calculated. Reactions contained escalating concentrations of the compounds.

[2] = Table 3 sulfur compounds, read-out: C. neoformans MIC80
[3] = HepDES19, read-out: HBV EC50, Table 3 sulfur compounds, HBV replication, HepDES19 cells
[4] = Table 3 sulfur compounds, values separated by / are repeats, read-out: HSV-1 suppression 1 μM
[5] = CC50, Table 3 sulfur compounds, MTT
[6] = Table 3 sulfur compounds, values separated by / are repeats, read-out: HSV-1 suppression 5 μM
[7] = Table 2 amides, tested 0.19 to 50 μM, read-out: C. neoformans MIC80
[8] = Table 2 amides, values separated by / are repeats, read-out: HSV-1 suppression 1 μM
[9] = Table 2 amides, values separated by / are repeats, read-out: HSV-1 suppression 5 μM

Structure (SMILES)	MIC80 [1, 2]	EC50 (HBV replication; [3])	CC50 at 24 h (in vitro; [5])	MIC80 [1, 7]	log reduction at 1 µM (HSV-1; [8])	log reduction at 5 µM (HSV-1; [9])	CC50 at 24 h (in vitro; CC50 (μM), Table 2 amides, MTT)	IC50 (human RNaseH1)	other results
CC(C)S(=O)(=O)c1cccc(O)c(=O)c1O [compound 537]	50 µM (≈ 12.2 µg/mL)	0.51 µM	20.6 µM						Therapeutic index (CC50/EC50) for HBV (TI, SI) (HBV replication): 41; log reduction at 1 µM (HSV-1; [4]): 0.25
O=c1c(O)c(S(=O)(=O)Cc2ccccc2)ccc(S(=O)(=O)Cc2ccccc2)c1O [compound 706]	49 µM (≈ 21.9 µg/mL)	51.4 µM	73 µM						log reduction at 5 µM (HSV-1; [6]): 0.59
CCCCCCSc1ccc(SCCCCCC)c(O)c(=O)c1O [compound 841]		10.7 µM	7.8 µM						MIC80 ([1]; read-out: C. neoformans MIC80, Table 3 sulfur compounds): 5 µM (≈ 1.85 µg/mL); log reduction at 1 µM (HSV-1; read-out: HSV-1 suppression 1 μM, Table 3 sulfur compounds, values separated by / are repeats): 4.99; log reduction at 5 µM (HSV-1; read-out: HSV-1 suppression 5 μM, Table 3 sulfur compounds, values separated by / are repeats): 4.77
CCCCS(=O)(=O)c1cccc(O)c(=O)c1O [compound 535]	50 µM (≈ 12.9 µg/mL)	2.02 µM	19.2 µM						log reduction at 1 µM (HSV-1; [4]): 0.07
CS(=O)(=O)c1cccc(O)c(=O)c1O [compound 387]	50 µM (≈ 10.8 µg/mL)	0.41 µM							EC50 (HBV replication; HepDES19, read-out: EC50 against HBV replication): 0.41 µM; log reduction at 5 µM (HSV-1; [6]): 0.02
CS(=O)(=O)c1ccc(O)c(=O)c(O)c1 [compound 382]	50 µM (≈ 10.8 µg/mL)	0.58 µM	79.5 µM						Therapeutic index (CC50/EC50) for HBV (TI, SI) (HBV replication): 136
Cc1cc(O)c(=O)c(O)cc1S(=O)(=O)c1ccccc1 [compound 336]	50 µM (≈ 14.6 µg/mL)	0.68 µM							log reduction at 0.33 µM (HSV-1; Table 3 sulfur compounds, values separated by / are repeats): 0.13; log reduction at 5 µM (HSV-1; [6]): 1.57
O=c1c(O)cccc(S(=O)(=O)c2ccccc2)c1O [compound 408]	50 µM (≈ 13.9 µg/mL)	11.1 µM	20.4 µM						log reduction at 5 µM (HSV-1; [6]): 0.56
Cc1ccc(S(=O)(=O)c2cc(O)c(=O)c(O)cc2C)cc1 [compound 367]	24 µM (≈ 7.35 µg/mL)	16.1 µM	23 µM						log reduction at 1 µM (HSV-1; [4]): 0; log reduction at 5 µM (HSV-1; [6]): 0.49
Cc1cc(O)c(=O)c(O)cc1C(=O)Nc1ccc(Cc2ccccc2)cc1 [compound 798]				1.2 µM (≈ 0.434 µg/mL)	2.32	4.39	3.3 ± 1.8 µM	467 µM	log reduction at 0.33 µM (HSV-1; Table 2 amides): -0.0103; CC50 at 24 h (in vitro; CC50): 3.3 µM
COc1ccc(C(=O)N2CCN(C(=O)c3cc(O)c(=O)c(O)cc3C)CC2)cc1 [compound 877]				14 µM (≈ 5.58 µg/mL)	-0.232	0.175	16.5 ± 1.4 µM	34.9 ± 7.2 µM	
Cc1cc(O)c(=O)c(O)cc1C(=O)NC(CCC(=O)O)C(=O)O (stereo not shown) [compound 868]				50 µM (≈ 16.3 µg/mL)	-0.15	0.0414	100 µM	27.7 ± 20.3 µM	CC50 at 24 h (in vitro; CC50): 100 µM
Cc1cc(O)c(=O)c(O)cc1C(=O)NC(CCCCNC(=O)OC(C)(C)C)C(=O)OC(C)(C)C (stereo not shown) [compound 869]				9 µM (≈ 4.33 µg/mL)		-0.147	14.6 ± 3.4 µM	602 ± 273 µM	
Cc1cc(O)c(=O)c(O)cc1C(=O)Nc1cccc(OCc2ccccc2)c1 [compound 836]				4.5 µM (≈ 1.7 µg/mL)		5.2	5.4 ± 3.5 µM	606 ± 482 µM	
Cc1cc(O)c(=O)c(O)cc1C(=O)NCc1ccc(-c2ccccc2)cc1 [compound 539]				4.5 µM (≈ 1.63 µg/mL)	0.52	5.3	3.6 ± 1.8 µM	50 ± 9 µM	Reduction of HSV-1 titers / suppression of HSV-1 replication at 5 μM (HSV-1; 5 μM, plaque forming units (PFU)/ml): more than 5 log10; CC50 at 24 h (in vitro; CC50): 1.8 µM
Cc1cc(O)c(=O)c(O)cc1C(=O)N1CCN(C(=O)c2ccc(Cl)cc2)CC1 [compound 875]				7 µM (≈ 2.82 µg/mL)	0.0449	1.32	4.7 ± 1.8 µM	17.2 ± 11 µM	
Cc1cc(O)c(=O)c(O)cc1C(=O)NCc1ccc(Oc2ccccc2)cc1 [compound 807]				4.5 µM (≈ 1.7 µg/mL)	-0.11	4.54	6 ± 6.5 µM	799 ± 403 µM	log reduction at 0.33 µM (HSV-1; Table 2 amides): 0.0714
Cc1ccc(CNC(=O)c2cc(O)c(=O)c(O)cc2C)c(C)c1 [compound 809]				3.3 µM (≈ 1.03 µg/mL)	0.0278	4.69	5.8 ± 6.5 µM	19.6 ± 20 µM	
